In patent US7030138B2, “Benzamidine derivatives” (Sankyo Company, Limited, priority 2001, dated 2006):
Where a name gives a salt, the structure may show the parent alone.

Columns and labels:
human factor-Xa = target: T1, human factor-Xa (Homo sapiens, UniProt P00742); test: Determination of anti-factor Xa activity (S-2222 coloring substrate, absorbance at 405 nm); type: biochemical; settings: human factor-Xa 0.25 unit/ml, S-2222 0.4 mM, Tris buffer pH 8.4, room temperature, 5 minutes; read-out: Inhibitory Action against Factor Xa Activity (IC50 (nM))
T1 construct: purchased Cosmobio Co., Ltd
Experimental: Determination of Anti-factor Xa Activity
Anti-factor Xa activity was determined according to methods described by Hara et al. [Thrombo. Haemost., 71, 314 (1994)], which were slightly modified. S-2222, a coloring substrate (0.4 mM, Daiichi Pure Chemicals Co., Ltd.) and the test compounds were mixed in Tris hydrochloride buffered solution (50 mM, pH: 8.4) containing NaCl (0.9%). To this solution, human factor-Xa (0.25 unit/ml, Cosmobio Co., Ltd.) was added and the reaction was started. In the control group, distilled water was added to the Tris-buffered solution instead of the test compound. The reaction mixture (in total: 0.1 ml) was incubated at room temperature for 5 minutes. Optical absorbance of the reaction mixture was continuously determined at 405 nm with a 96-well microplate reader (Model 550, Biorad) and increase in the absorbance for 5 minutes was calculated as an indicator of factor Xa activity. To assess anti-factor Xa activities of the test compounds, concentrations of the test compounds to inhibit the factor Xa activity by 50% (IC50) were calculated.

bovine trypsin = target: T2, bovine trypsin (Bos taurus, UniProt P00760); test: Determination of anti-trypsin activity (S-2222 coloring substrate, absorbance at 405 nm); type: biochemical; settings: bovine trypsin 0.25 μg-protein/ml, S-2222 0.4 mM, Tris buffer pH 8.4, room temperature, 5 minutes; read-out: Inhibitory Action against Trypsin Activity (IC50 (nM))
T2 construct: purchased Sigma
T2 sequence (P00760 24-246): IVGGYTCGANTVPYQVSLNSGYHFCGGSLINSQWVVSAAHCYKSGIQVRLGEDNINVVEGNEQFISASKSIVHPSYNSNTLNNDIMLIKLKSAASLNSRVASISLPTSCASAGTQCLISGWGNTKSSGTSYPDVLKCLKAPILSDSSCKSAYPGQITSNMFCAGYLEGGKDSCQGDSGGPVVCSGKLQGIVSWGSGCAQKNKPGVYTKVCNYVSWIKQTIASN
Experimental: Determination of Anti-trypsin Activity
Anti-trypsin activity was determined according to methods described by Taniuchi et al. [Thromb. Haemost., 79, 543 (1998)], which were partially modified. S-2222, a coloring substrate (5 μl, final concentration: 0.4 mM, Daiichi Pure Chemicals Co., Ltd.) and the test compound (5 μl) were mixed with Tris hydrochloride buffered solution (50 mM, 85 μl, pH: 8.4) containing NaCl (0.9%). To this solution, bovine trypsin (5 μl, final concentration: 0.25 μg-protein/ml, Sigma) was added and the reaction was started. In the control group, distilled water was added to the Tris-buffered solution instead of the test compound. The reaction mixture (in total: 0.1 ml) was incubated at room temperature. Optical absorbance was continuously determined at 405 nm with a 96-well microplate reader (Model 550, Biorad) and increase in the absorbance for 5 minutes was calculated as an indicator of trypsin activity. To assess anti-trypsin activities of the test compounds, concentrations of the test compounds to inhibit the trypsin activity by 50% (IC50) were calculated.

T1 sequence (P00742 235-488 limits assumed): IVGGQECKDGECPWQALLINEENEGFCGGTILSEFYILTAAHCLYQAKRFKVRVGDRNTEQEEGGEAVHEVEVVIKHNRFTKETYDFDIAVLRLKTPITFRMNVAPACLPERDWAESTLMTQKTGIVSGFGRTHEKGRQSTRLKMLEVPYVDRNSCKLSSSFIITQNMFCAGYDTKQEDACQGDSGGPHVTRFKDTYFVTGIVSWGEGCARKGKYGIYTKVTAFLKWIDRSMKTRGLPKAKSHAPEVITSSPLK
T1 sequence (P00742 41-179 partner limits assumed): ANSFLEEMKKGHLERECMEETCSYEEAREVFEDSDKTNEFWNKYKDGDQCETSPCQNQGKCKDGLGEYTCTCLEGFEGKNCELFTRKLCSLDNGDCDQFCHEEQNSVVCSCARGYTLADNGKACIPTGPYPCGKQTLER

- IC50 (human factor-Xa): 11 nM
- IC50 (bovine trypsin): 2000 nM
SMILES: N=C(N)c1cccc(/C=C/CN(c2ccc(OC3CCN(C4=NCCO4)CC3)c(Cl)c2)S(=O)(=O)CC(=O)O)c1 [Example 89, N-[3-(3-Amidinophenyl)-2-(E)-propenyl]-N-[3-chloro-4-[1-(4,5-dihydrooxazol-2-yl)piperidin-4-yloxy]phenyl]sulfamoylacetic acid dihydrochloride]
